What was measured:
[1] = tested on: MRSA CBD-635 and P. aeruginosa USF-1423; test: MIC of reference antibiotics at the start of serial passage; type: cell-based; details: organism not stated in the legend of Figure 4
[2] = tested on: a variety of fungi and Gram-positive bacteria; details: cited from earlier work

Compound | MIC of reference antibiotic [1] | MICs [2]
CN[C@H](CC(C)C)C(=O)N[C@H]1C(=O)N[C@@H](CC(N)=O)C(=O)N[C@H]2C(=O)N[C@H]3C(=O)N[C@H](C(=O)N[C@H](C(=O)O)c4cc(O)cc(O)c4-c4cc3ccc4O)[C@H](O)c3ccc(c(Cl)c3)Oc3cc2cc(c3O[C@@H]2O[C@H](CO)[C@@H](O)[C@H](O)[C@H]2O[C@H]2C[C@](C)(N)[C@H](O)[C@H](C)O2)Oc2ccc(cc2Cl)[C@H]1O [Vancomycin] | 7 µM | –
fusaricidin A | – | 0.78 to 3.12 µg/mL
O=C(O)c1cn(C2CC2)c2cc(N3CCNCC3)c(F)cc2c1=O [ciprofloxacin] | 30 µM | –
